The target of one assay is T1, DOr85b/Orco (Drosophila melanogaster, UniProt Q9VHQ6).
T1 construct: host or cells: Xenopus oocytes
T1 sequence (Q9VHQ6 1-389): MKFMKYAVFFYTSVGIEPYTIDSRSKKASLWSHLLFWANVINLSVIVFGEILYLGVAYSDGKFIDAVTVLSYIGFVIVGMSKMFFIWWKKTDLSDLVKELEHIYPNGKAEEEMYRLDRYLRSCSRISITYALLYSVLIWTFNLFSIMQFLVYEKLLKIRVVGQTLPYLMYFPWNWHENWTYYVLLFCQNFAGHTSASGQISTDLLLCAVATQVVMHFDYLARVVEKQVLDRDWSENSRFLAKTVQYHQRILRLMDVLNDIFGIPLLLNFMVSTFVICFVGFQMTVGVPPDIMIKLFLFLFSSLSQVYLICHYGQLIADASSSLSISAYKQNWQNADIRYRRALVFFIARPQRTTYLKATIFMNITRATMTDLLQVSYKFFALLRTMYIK
T1 sequence (Q9VNB5 1-486 partner): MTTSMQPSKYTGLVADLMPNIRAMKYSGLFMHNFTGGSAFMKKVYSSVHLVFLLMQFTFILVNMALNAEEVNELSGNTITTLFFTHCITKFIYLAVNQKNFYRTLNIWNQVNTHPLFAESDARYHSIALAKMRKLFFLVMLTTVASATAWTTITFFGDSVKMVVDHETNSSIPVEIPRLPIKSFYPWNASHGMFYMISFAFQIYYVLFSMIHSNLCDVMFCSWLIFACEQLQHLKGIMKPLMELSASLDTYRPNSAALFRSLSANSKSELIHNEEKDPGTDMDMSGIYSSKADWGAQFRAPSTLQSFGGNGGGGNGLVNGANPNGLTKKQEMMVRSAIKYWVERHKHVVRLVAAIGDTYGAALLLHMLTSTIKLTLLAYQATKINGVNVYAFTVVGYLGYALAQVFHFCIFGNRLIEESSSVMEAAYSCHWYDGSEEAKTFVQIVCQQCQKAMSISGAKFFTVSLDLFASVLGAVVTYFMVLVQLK
As to conditions: cited from earlier work.

The test system of another assay is PxOR1/Orco. As to conditions: ref 14; * estimated visually from graph; cited from earlier work.
Another assay concerns OscaOR1/Orco. As to conditions: ref 47; * estimated visually from graph; cited from earlier work.
In a further assay the test system is DiOR1/Orco. As to conditions: ref 48; * estimated visually from graph; cited from earlier work.
The next assay relates to AgOr65/Orco. The following applies: cited from earlier work.
In another assay the test system is BmOR1/Orco. As to conditions: ref 14; * estimated visually from graph; cited from earlier work.
The test system of the next assay is AgOr48/Orco. The following applies: cited from earlier work.
For the next assay, the system named is MsiOR1/Orco. As to conditions: ref 48; * estimated visually from graph; cited from earlier work.
The next assay concerns the target T2, Or71a/Orco (Drosophila melanogaster, UniProt Q9VUK5).
T2 construct: his-tag; made in house; host or cells: baculovirus-infected Sf9 cells
T2 sequence (Q9VUK5 1-378): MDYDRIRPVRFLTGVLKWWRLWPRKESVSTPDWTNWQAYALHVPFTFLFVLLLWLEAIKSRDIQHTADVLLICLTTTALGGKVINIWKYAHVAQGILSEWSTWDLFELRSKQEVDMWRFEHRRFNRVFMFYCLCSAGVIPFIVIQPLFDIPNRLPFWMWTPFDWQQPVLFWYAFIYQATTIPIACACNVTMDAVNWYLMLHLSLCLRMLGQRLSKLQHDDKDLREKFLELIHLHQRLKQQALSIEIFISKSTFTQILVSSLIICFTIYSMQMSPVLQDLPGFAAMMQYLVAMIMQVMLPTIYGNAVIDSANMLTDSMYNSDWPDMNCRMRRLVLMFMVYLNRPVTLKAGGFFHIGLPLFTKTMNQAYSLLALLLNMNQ
T2 sequence (Q9VNB5 1-486 partner): T1 sequence (Q9VNB5 1-486 partner)
The experiment in a line: Droplet interface bilayer ion channel recording, Or71a/Orco. In kind it is biochemical. As to conditions: DIB, 10 μM ligand, holding potential 0 mV and −100 mV. The method, then: Bilayers were formed between two droplets formed within a PMMA chamber filled with 1 mg/ml DPhPC in undecane and AR20 silicone oil (1:1 ratio). The first step in this process was to deposit a 50 nl droplet onto the stationary silver electrode positioned at the base of the well; this droplet consisted of an aqueous solution containing 300 mM NaCl, 10 mM HEPES (pH 7.4), containing the odorant receptor proteins in proteoliposomes (at a 1:20 dilution from the proteoliposome preparation), […] The second droplet was mounted onto a second silver electrode which was held in the oil and lipid mixture using a YOU-3 manipulator (Narishige, Japan). […] Once the droplets were in contact a bilayer formed spontaneously within 1 minute (as determined by visual assessment and an increase in the bilayer capacitance as measured with a capacitance voltage protocol using the Pico2 amplifier). Insertion of an active channel was determined by a change in current while clamping the voltage at 50 mV. […]
Currents were recorded with a Pico2 or an eONE-HS amplifier (Tecella, USA and Elements, Italy, respectively) with built-in digitizers, operating in gap-free acquisition mode at a sampling frequency of 20 kHz, and using a 0.8 or 1.5 kHz low pass filter. […]
Data were analysed using ANA (Dr Pusch, Genoa), EDR (Elements, Italy) and WinWCP (Dr Dempster, University of Strathclyde). […]

Another assay relates to ECB (Z) OR3/Orco. The following applies: cited from earlier work.
A short description of assay [1]: EIS sensor, empty liposomes (specificity control). As to conditions: empty liposomes without receptor. In kind it is biochemical. The method, then:
PBS solution was prepared by immersing one tablet of PBS in 200 ml of milli-Q water (according to manufacturers instructions) and filtered using 0.2-μm syringe filter. The pH of the prepared buffer solution was measured with a pH meter. OrX liposomes or OrX/Orco liposomes were diluted 100 fold in PBS buffer solution (pH=7.4) and the COOH-activated electrodes were incubated in that buffer solution at room temperature for one hour. Then, the electrodes were washed extensively with PBS buffer solution to wash out any unbound liposomes.
(§1) PBS (pH=7.4) was used as an electrolyte to conduct electrochemical measurements. PBS buffer was degassed for about 30 minutes prior to electrochemical measurements. Odorant solutions of concentration ranging from 1 aM to 1 μM were prepared by sequential dilution in PBS solution containing 1% DMSO. OR immobilized electrodes were incubated in relevant odorant solution for ˜30 minutes each and washed gently with PBS before EIS measurements.
(§2) EIS measurements were done in a 3 electrode cell containing Ag/AgCl (3 M NaCl, 0.209 V vs. SHE) reference electrode, coiled platinum wire as a counter electrode and the gold disk as a working electrode at a fixed voltage of −0.7 using PalmSens potentiostat. Degassed PBS was used as an electrolyte.
EIS measurements were performed on gold electrodes functionalised with OrX liposomes (either Or10a or Or22a), OrX/Orco liposomes, or empty liposomes prior to and after target ligand or control ligand incubation with increasing concentrations (1 aM to 100 μM). Dose response curves were obtained by defining sensor response as −(ΔRp/R^op) versus log[C(Ligand)]. FIG. 4a presents the EIS response in terms of Nyquist plot for the Or10a liposome functionalized sensors when exposed to a solution containing one of the known target ligands of Or10a, methyl salicylate, at various concentrations. […] The dose response curve (FIG. 4b) was obtained by plotting the change in polarization resistance −(ΔRp/R^op) versus log[conc(Ligand)], as the sensor response. […]

Another assay addresses T3, Or35a (Drosophila melanogaster, UniProt Q9V3Q2).
T3 construct: his-tag; made in house; host or cells: baculovirus-infected Sf9 cells
T3 sequence (Q9V3Q2 1-409): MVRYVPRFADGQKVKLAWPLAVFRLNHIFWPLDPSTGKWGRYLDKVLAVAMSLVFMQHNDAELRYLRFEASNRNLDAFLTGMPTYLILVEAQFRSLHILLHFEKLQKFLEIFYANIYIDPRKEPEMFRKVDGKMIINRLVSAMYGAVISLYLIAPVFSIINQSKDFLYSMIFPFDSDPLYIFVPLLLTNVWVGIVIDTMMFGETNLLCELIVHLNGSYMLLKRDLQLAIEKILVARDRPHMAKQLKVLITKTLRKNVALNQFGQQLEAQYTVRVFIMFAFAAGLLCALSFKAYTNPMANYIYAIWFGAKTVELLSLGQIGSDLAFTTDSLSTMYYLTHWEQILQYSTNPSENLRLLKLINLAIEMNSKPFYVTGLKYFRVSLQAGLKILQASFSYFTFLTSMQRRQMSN
The experiment in a line: EIS sensor, Or35a liposomes on gold electrode. In kind it is biochemical. As to the method:
as §1, §2
EIS measurements were performed on gold electrodes functionalised with OrX liposomes (either Or10a or Or22a), OrX/Orco liposomes, or empty liposomes prior to and after target ligand or control ligand incubation with increasing concentrations (1 aM to 100 μM). Dose response curves were obtained by defining sensor response as −(ΔRp/R^op) versus log[C(Ligand)]. FIG. 4a presents the EIS response in terms of Nyquist plot for the Or10a liposome functionalized sensors when exposed to a solution containing one of the known target ligands of Or10a, methyl salicylate, at various concentrations. […] The dose response curve (FIG. 4b) was obtained by plotting the change in polarization resistance −(ΔRp/R^op) versus log[conc(Ligand)], as the sensor response. Here, Rp is the polarization resistance after Or10a liposome-target interaction and R^op is the polarization resistance before Or10a liposome-target interaction.
(§3) Prior to use, 1 mg liposomes (500 μl at 2 mg/ml) were defrosted on ice and then destabilized by incubating with 0.2% CHAPS for 15 min at room temperature. […] All Or35a/Orco integrated liposomes samples were analysed by Western blot before being aliquoted and stored at −80° C. Integration of Or35a/Orco into liposomes was assessed by density gradient ultracentrifugation (DGU) using Accudenz (Accurate Chemical & Scientific Corporation, USA). […]

The next assay addresses T4, Or35a/Orco (Drosophila melanogaster, UniProt Q9V3Q2).
T4 construct: his-tag; made in house; host or cells: baculovirus-infected Sf9 cells
T4 sequence (Q9V3Q2 1-409): T3 sequence (Q9V3Q2 1-409)
T4 sequence (Q9VNB5 1-486 partner): T1 sequence (Q9VNB5 1-486 partner)
The experiment in a line: EIS sensor, Or35a/Orco liposomes on gold electrode. In kind it is biochemical. As to the method: as §1
EIS measurements were done in a 3 electrode cell containing Ag/AgCl (3 M NaCl, 0.209 V vs. SHE) reference electrode, coiled platinum wire as a counter electrode and the gold disk as a working electrode at a fixed voltage of −0.7 using PalmSens potentiostat. Degassed PBS was used as an electrolyte. […]
as §3

For another assay, the system named is BmOR3/Orco. As to conditions: ref 14; * estimated visually from graph; cited from earlier work.
The mark [2] stands for this setting: EIS dose response, ligand 1 aM to 100 μM.

For `CCCCCC(C)=O` [2-heptanone], the half-maximal effective concentration (EC50) at DOr85b/Orco is 45.6 µM. Moreover, the Sensitivity limit at DOr85b/Orco (ref 14, * estimated visually from graph) is listed as 10^−8-10^−6 M*.

Regarding `CCCC/C=C\CCCCCCCCCC=O` [Z11-16:Ald], in the assay on PxOR1/Orco, the Sensitivity limit was 10^−8-10^−6 M*. For `CC/C=C/CCCCCCCCCCO` [E11-14:OH], the Sensitivity limit in the assay with OscaOR1/Orco is 10^−7 M*. Consider `CCCC/C=C/CCCCCCCCCC=O` [Ell-16:Ald], for which the Sensitivity limit in the assay on DiOR1/Orco is recorded as 10^−7 M*.

In the case of `C=CCc1ccc(O)c(OC)c1` [eugenol], the “Ec50 (given as Log)” value in the assay with AgOr65/Orco (log value) is listed as “Log = −6.54”. Further, the “Sensitivity limit (given as Log)” value in the assay with AgOr65/Orco (ref 43, * estimated visually from graph) is listed as “Log = −7*”. For the molecule `CCC/C=C\C=C\CCCCCCCCCO` [Bonnbykol], the Sensitivity limit with BmOR1/Orco was 10^−8-10^−6 M*.

With `CCCCCCCCC1CCC(=O)O1` (stereo not shown) [g-dodecalactone], the “Ec50 (given as Log)” value in the assay on AgOr48/Orco (log value) is on record as “Log = −7.01”. The “Sensitivity limit (given as Log)” value in the assay with AgOr48/Orco (ref 45, * estimated visually from graph) was “Log = −8*”. As to `CCCC/C=C\CCCCCCCCCCOC(C)=O` [Z11-16:Ac], the Sensitivity limit in the assay with MsiOR1/Orco is on record as 10^−7 M*. Regarding `CCc1ccc(OC)c(O)c1` [4-ethyl guaiacol], on Or71a/Orco, the ion channel activity result is given as “active ligand gated ion channel”.

Turning to `CC/C=C/CCCCCCCCCCOC(C)=O` [E11 pheromone], in the assay on ECB (Z) OR3/Orco, the Sensitivity limit is reported as 10^−9 M. `CCC/C=C/C=O` [E2-hexenal]: the “sensor response to ligand” value in [1] is given as “negligible responses”. The “limit of detection (LOD)” value at Or35a (setting [2]) came to 10 fM. Also, the “Detection Range” value on Or35a (Table 3) is reported as 10^−14 to 10^−6 M; at Or35a/Orco (Table 3), 10^−16-10^−6 M. The molecule also yielded a limit of detection at Or35a/Orco (setting [2]) of 0.1 fM. Consider `CCC/C=C\C=C\CCCCCCCCC=O` [Bonnbykal], for which the Sensitivity limit in the assay on BmOR3/Orco is 10^−8-10^−6 M*.

As usually defined, the EC50 is the concentration giving half of the maximal effect.

Values taken from patent US20210255184A1, “Biosensor Device and Methods” (The New Zealand Institute for Plant and Food Research …, priority 2018, published 2021).
